Assay results as given in US8669072B2, “Oxadiazoline ligands for modulating the expression of exogenous genes via an ecdysone receptor complex” (Intrexon Corporation, priority 2003, dated 2014).

Key:
[1] = molecular target: T1, GAL4 DBD-CfEcR(DEF)/VP16AD-MmRXRE (Choristoneura fumiferana, UniProt O77240); experiment: 13B3 assay: luciferase reporter gene induction in stable CHO clone 13B3; type: cell-based; conditions: 33/33.3 μM ligand, 48 h, RLU relative to DMSO
T1 construct: The wild-type D, E, and F domains from spruce budworm Choristoneura fumiferana EcR (“CfEcR-DEF”)
Experimental: CHO cells were transiently transfected with transcription cassettes for GAL4 DBD-CfEcR(DEF) and for VP16AD-MmRXRF controlled by SV40e promoters. Stably transfected cells were selected using Hygromycin. Individually isolated CHO cell clones were transiently transfected with a GAL4 RE-luciferase reporter (pFR-Luc, Stratagene, La Jolla, Calif.). The 13B3 clone was selected using Zeocin.
(§1) Cells were trypsinized and diluted to a concentration of 2.5×10^4 cells mL. 100 μL of cell suspension was placed in each well of a 96 well plate and incubated at 37° C. under 5% CO2 for 24 h. Ligand stock solutions were prepared in DMSO and diluted 300 fold for all treatments.
(§2) Luciferase reporter gene expression was measured 48 h after cell treatment using Bright-Glo™ Luciferase Assay System from Promega (E2650). Luminescence was detected at room temperature using a Dynex MLX microtiter plate luminometer.
(§3) Each assay was conducted in two separate wells, and the two values were averaged. Fold inductions were calculated by dividing relative light units (“RLU”) in ligand treated cells with RLU in DMSO treated cells. EC50s were calculated from dose response data using a three-parameter logistic model.

Bombyx mori EcR (VBE) = molecular target: T2, Bombyx mori EcR (VBE) (Bombyx mori, UniProt P49881); experiment: Z3 assay: β-galactosidase reporter gene induction in HEK-293 clone Z3 (CVBE / 6XEcRE LacZ); type: cell-based; conditions: 33 μM ligand, 48 h, RLU relative to DMSO; for fold induction at 33 µM: HEK293, read-out: Fold Induction Average, Z3 assay
T2 construct: expressed in transfected cells; host or cells: Human HEK-293 cells, retrovirally infected, clone Z3
T2 sequence (P49881 86-606 limits assumed): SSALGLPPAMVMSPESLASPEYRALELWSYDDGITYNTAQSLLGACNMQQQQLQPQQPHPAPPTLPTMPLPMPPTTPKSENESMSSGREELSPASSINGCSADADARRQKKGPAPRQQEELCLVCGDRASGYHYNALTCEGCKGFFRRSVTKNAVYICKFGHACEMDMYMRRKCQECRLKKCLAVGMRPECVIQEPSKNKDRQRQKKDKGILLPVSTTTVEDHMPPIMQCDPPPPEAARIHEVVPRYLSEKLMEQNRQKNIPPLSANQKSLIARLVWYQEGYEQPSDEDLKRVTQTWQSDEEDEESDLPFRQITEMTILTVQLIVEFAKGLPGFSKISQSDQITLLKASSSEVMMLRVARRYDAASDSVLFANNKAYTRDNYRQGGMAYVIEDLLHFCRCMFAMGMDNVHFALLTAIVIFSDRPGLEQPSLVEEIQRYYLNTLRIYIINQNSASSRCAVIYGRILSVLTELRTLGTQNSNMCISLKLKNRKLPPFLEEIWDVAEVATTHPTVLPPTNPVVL
T2 sequence (P19793 1-462 partner): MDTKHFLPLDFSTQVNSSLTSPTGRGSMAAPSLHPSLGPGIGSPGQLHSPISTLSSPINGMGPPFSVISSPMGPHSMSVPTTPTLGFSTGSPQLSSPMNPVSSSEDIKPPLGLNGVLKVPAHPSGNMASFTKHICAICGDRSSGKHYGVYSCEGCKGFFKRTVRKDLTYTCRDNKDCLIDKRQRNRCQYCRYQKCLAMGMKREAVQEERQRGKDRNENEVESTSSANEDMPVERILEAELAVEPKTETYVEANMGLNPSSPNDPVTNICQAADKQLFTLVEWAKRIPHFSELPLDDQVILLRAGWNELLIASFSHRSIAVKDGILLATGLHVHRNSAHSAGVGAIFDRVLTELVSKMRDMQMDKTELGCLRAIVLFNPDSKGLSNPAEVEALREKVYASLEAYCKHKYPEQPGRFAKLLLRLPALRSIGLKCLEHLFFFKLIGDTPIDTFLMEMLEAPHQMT
Experimental: A synthetic ATG start codon was placed under the control of cytomegalovirus (CVBE) immediate early promoter and flanked by long terminal repeats (LTR). The reporter construct contained six copies of the ecdysone response element (EcRE) binding site placed upstream of LacZ and flanked on both sides with LTR sequences (6×EcRE).
Dilution cloning was used to isolate individual clones. Clones were selected using 450 ug/mL G418 and 100 ng/mL puromycin. Individual clones were evaluated based on their response in the presence and absence of test ligands.
Z3 cells were seeded into 96-well tissue culture plates at a concentration of 2.5×10^3 cells per well and incubated at 37° C. in 5% CO2 for twenty-four hours. Stock solutions of ligands were prepared in DMSO. […] The final concentration of DMSO was maintained at 0.03% in both controls and treatments.
Reporter gene expression was evaluated 48 hours after treatment of cells, β-galactosidase activity was measured using Gal Screen™ bioluminescent reporter gene assay system from Tropix (GSY1000). Fold induction activities were calculated by dividing relative light units (“RLU”) in ligand treated cells with RLU in DMSO treated cells. Luminescence was detected at room temperature using a Dynex MLX microtiter plate luminometer.
as §3

[2] = molecular target: T3, GAL4 DBD (1-147)-CfEcR(DEF)/VP16AD-βRXREF-LmUSPEF (Choristoneura fumiferana, UniProt O77240); experiment: cell-based; conditions: for fold induction at 33.3 µM: 48 h, read-out: Fold Induction Average, 27-63 assay; for Rel Max FI, 27-63 assay: maximum fold induction relative to that of GS-E ligand
T3 construct: The wild-type D, E, and F domains from spruce budworm Choristoneura fumiferana EcR (“CfEcR-DEF”)
Experimental: Stably transfected cells were selected by Zeocin resistance. Individually isolated CHO cell clones were transiently transfected with a GAL4 RE-luciferase reporter (pFR Luc). 27-63 clone was selected using Hygromycin.
as §1, §2, §3

| Compound | Fold Induction Average, 13B3 assay [1] | Fold Induction Average, Z3 assay (Bombyx mori EcR (VBE)) | EC50 [2] [µM] | fold induction at 33.3 µM [2] | Rel Max FI, 27-63 assay [2] | further results |
| --- | --- | --- | --- | --- | --- | --- |
| COc1ccccc1C1=NOC(C)(C)N1NC(=O)C(F)(F)C(F)(F)Cl [RG-120062] | 0.2 | 0.6 | – | – | – | – |
| COc1ccccc1C1=NOC(C)(C)N1NC(=O)COCc1ccccc1 [RG-120018] | 0.8 | 0.7 | – | – | – | – |
| CCc1ccc(C(=O)NN2C(c3cc(C)cc(C)c3)=NOC23CCCC3)c(F)c1 [RG-121515] | – | – | ~5 | 36.6 | 0.17 | – |
| CCOC(=O)CCC(=O)NN1C(c2ccc(OC)cc2OC)=NOC1(C)C [RG-120038] | – | 0.2 | – | – | – | – |
| CC1(C)ON=C(c2ccc3c(c2)OCO3)N1NC(=O)c1ccco1 [RG-120149] | 1.1 | 0.7 | – | – | – | – |
| CC1(C)ON=C(c2ccc(Cl)cc2)N1NC(=O)c1cc2ccccc2s1 [RG-120087] | 0.4 | 0.4 | – | – | – | – |
| Cc1cc(C)cc(C2=NOC3(CCOCC3)N2NC(=O)c2ccccc2)c1 [RG-120019] | – | – | > 33 | 1.5 | 0 | – |
| CC1(C)ON=C(c2ccc3c(c2)OCO3)N1NC(=O)COc1ccccc1 [RG-120127] | 0.6 | 0.7 | – | – | – | – |
| CC1(C)ON=C(c2cccc(C(F)(F)F)c2)N1NC(=O)COCc1ccccc1 [RG-120006] | 1.1 | 0.5 | – | – | – | – |
| COc1ccccc1C1=NOC(C)(C)N1NC(=O)COc1ccccc1 [RG-120057] | 0.6 | 0.8 | – | – | – | – |
| CC1(C)ON=C(c2cccc(C(F)(F)F)c2)N1NC(=O)c1cc2ccccc2s1 [RG-120108] | – | 0.3 | – | – | – | – |
| Cc1cc(C)cc(C2=NOC(C)(C)N2NC(=O)c2ccccc2[N+](=O)[O-])c1 [RG-120098] | 0.3 | 1.8 | – | – | – | – |
| COc1ccc(C2=NOC(C)(C)N2NC(=O)c2ccco2)c(OC)c1 [RG-120102] | 0.5 | 0.8 | – | – | – | – |
| COc1cccc(C(=O)NN2C(c3cc(C)cc(C)c3)=NOC23CCOCC3)c1C [RG-120086, N-[3-(3,5-dimethyl-phenyl)-1,8-dioxa-2,4-diaza-spiro[4.5]dec-2-en-4-yl]-3-methoxy-2-methyl-benzamide] | – | – | – | – | – | fold induction at 33.3 µM ([1]; read-out: Fold Induction Average, 13B3 assay): 4; fold induction at 33 µM (Bombyx mori EcR (VBE)): 112 |
| CC1(C)ON=C(c2ccc(Cl)cc2)N1NC(=O)c1ccccc1 [RG-120151] | 0.3 | 0.8 | – | – | – | – |
| COc1ccc(C2=NOC(C)(C)N2NC(=O)COc2ccccc2)c(OC)c1 [RG-120079] | 0.7 | 0.6 | – | – | – | – |
| CCc1ccc(C(=O)NN2C(c3cc(C)cc(C)c3)=NOC2(C)CC)c(F)c1 (centres unmarked) [RG-121513] | – | – | ~10 | 1020 | 0.44 | – |
| CC1(C)ON=C(c2cccc(C(F)(F)F)c2)N1NC(=O)C(F)(F)C(F)(F)Cl [RG-120059] | – | 0.6 | – | – | – | – |

| Compound | Fold Induction Average, 13B3 assay [1] | Fold Induction Average, Z3 assay (Bombyx mori EcR (VBE)) | EC50 [2] [µM] | fold induction at 33.3 µM [2] | Rel Max FI, 27-63 assay [2] | further results |
| --- | --- | --- | --- | --- | --- | --- |
| CC1(C)ON=C(c2ccc3c(c2)OCO3)N1NC(=O)c1cc2ccccc2s1 [RG-120140] | 1.4 | 0.5 | – | – | – | – |
| CC1(C)ON=C(c2ccc(OC(F)(F)F)cc2)N1NC(=O)c1ccco1 [RG-120094] | 0.6 | 0.8 | – | – | – | – |
| CCc1ccc(C(=O)NN2C(c3ccccc3)=NOC2(C)C)c(F)c1 [RG-121516] | – | – | > 33 | 7.9 | 0 | – |
| CCc1ccc(C(=O)NN2C(c3ccc(-c4ccccc4)cc3)=NOC2(C)C)cc1 [RG-120142] | 0.3 | 0.4 | – | – | – | – |
| CCC1(C)ON=C(c2cc(C)cc(C)c2)N1NC(=O)COCc1ccccc1 (centres unmarked) [RG-120050] | 0.9 | 3.5 | – | – | – | – |
| CCc1ccc(C(=O)NN2C(c3ccccc3)=NOC23CCCC3)c(F)c1 [RG-121514] | – | – | 3.89 | 1.7 | 0.5 | – |
| CCc1c(OC)cccc1C(=O)NN1C(c2ccc(OC(F)(F)F)cc2)=NOC1(C)C [RG-120022] | – | – | > 33 | 0.3 | 0 | fold induction at 33 µM (Bombyx mori EcR (VBE)): 0.1 |
| COc1ccccc1C1=NOC(C)(C)N1NC(=O)Cc1ccccc1 [RG-120157] | – | 0.9 | – | – | – | – |
| CCc1c(C(=O)NN2C(c3cc(C)cc(C)c3)=NOC2(C)CC)ccc2c1OCCO2 (centres unmarked) [RG-121518] | – | – | 3.57 | 2340 | 1.08 | – |
| CCc1c(OC)cccc1C(=O)NN1C(c2cccc(C(F)(F)F)c2)=NOC1(C)C [RG-120093] | – | – | > 33 | 5 | 0 | fold induction at 33 µM (Bombyx mori EcR (VBE)): 0.2 |
| CCc1c(OC)cccc1C(=O)NN1C(c2ccc3c(c2)OCO3)=NOC1(C)C [RG-120023] | – | – | > 33 | 1.4 | 0 | fold induction at 33 µM (Bombyx mori EcR (VBE)): 0.2 |
| COc1ccc(C2=NOC(C)(C)N2NC(=O)Cc2ccccc2)c(OC)c1 [RG-120078] | – | 0.4 | – | – | – | – |
| CCc1ccc(C(=O)NN2C(c3cccc(C(F)(F)F)c3)=NOC2(C)C)cc1 [RG-120148] | – | – | > 33 | 0.7 | 0 | fold induction at 33 µM (Bombyx mori EcR (VBE)): 1.1 |
| CCc1c(C(=O)NN2C(c3ccccc3)=NOC2(C)C)ccc2c1OCCO2 [RG-121517, 5-ethyl-2,3-dihydro-benzo[1,4]dioxine-6-carboxylic acid (5,5-dimethyl-3-phenyl-[1,2,4]oxadiazol-4-yl)-amide] | – | – | ~20 | 3510 | 1.55 | – |
| Cc1cc(C)cc(C2=NOC3(CCOCC3)N2NC(=O)COc2ccccc2)c1 [RG-120048] | – | 1.0 | – | – | – | – |
| CC1(C)ON=C(c2ccc(OC(F)(F)F)cc2)N1NC(=O)c1cc2ccccc2s1 [RG-120109] | – | 0.2 | – | – | – | – |
| CCc1ccc(C(=O)NN2C(c3cc(C)cc(C)c3)=NOC23CCOCC3)cc1 [RG-120005] | – | – | > 33 | 0.8 | 0 | – |
| CCOC(=O)CCC(=O)NN1C(c2ccccc2)=NOC12CCCC2 [RG-120014] | – | 1.1 | – | – | – | – |
